Molecular target: T1, c-Met kinase (recombinant c-Met) (Homo sapiens, UniProt P08581)
T1 construct: 0.27 nM recombinant c-Met
Test: In vitro kinase assay I (homogeneous time-resolved fluorescence tyrosine kinase assay)
Type: biochemical
How it was run: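 Biotinylated peptide (0.5 μM) phosphorylated by 0.2 nM recombinant c-Met with 50 μM MgATP, 60 min at room temperature, pH 7.4, 5% DMSO. EDTA stop; HTRF read with Eu-anti-phosphotyrosine antibody and streptavidin-APC. IC50 from 4-parameter logistic fit.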

T1 sequence (P08581 25-1390): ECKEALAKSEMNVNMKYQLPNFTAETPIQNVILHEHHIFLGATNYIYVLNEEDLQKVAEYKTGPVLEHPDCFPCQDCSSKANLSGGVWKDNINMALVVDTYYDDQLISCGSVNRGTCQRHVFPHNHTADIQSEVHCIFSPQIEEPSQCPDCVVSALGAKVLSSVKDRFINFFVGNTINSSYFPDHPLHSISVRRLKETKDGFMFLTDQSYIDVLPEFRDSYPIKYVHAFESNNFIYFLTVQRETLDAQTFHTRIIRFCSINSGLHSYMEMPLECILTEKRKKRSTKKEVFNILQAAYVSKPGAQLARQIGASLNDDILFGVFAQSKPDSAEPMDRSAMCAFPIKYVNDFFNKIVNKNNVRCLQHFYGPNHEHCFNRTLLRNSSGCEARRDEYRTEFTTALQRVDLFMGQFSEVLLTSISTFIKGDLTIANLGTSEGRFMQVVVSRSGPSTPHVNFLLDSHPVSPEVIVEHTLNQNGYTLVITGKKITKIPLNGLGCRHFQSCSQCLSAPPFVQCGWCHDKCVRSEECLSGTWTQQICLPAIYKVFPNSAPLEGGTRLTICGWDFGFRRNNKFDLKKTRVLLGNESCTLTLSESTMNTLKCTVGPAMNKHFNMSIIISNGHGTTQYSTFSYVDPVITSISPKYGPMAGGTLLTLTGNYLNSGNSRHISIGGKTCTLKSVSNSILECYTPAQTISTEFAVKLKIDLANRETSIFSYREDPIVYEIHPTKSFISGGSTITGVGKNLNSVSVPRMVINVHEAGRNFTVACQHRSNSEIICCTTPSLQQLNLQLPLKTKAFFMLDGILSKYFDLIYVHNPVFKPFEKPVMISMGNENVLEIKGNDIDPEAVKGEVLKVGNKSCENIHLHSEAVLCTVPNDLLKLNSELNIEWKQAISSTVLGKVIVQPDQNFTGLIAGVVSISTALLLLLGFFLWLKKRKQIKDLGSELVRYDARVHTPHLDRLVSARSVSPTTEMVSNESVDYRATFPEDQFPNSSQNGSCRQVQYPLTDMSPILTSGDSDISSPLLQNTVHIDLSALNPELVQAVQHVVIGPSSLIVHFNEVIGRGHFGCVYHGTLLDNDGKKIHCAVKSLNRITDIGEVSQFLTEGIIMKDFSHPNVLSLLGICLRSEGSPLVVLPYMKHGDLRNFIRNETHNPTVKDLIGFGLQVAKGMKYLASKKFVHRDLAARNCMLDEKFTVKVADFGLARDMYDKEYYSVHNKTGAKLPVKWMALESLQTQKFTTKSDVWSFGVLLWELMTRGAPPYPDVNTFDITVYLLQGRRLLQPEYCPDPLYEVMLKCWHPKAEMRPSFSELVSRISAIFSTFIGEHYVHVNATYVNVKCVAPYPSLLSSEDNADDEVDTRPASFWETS

Row | Structure (SMILES) | IC50
1 | CC(c1cccc(-c2ncc(-c3cnn(C)c3)cn2)c1)c1nn(-c2ccc(F)c(F)c2)ccc1=O (single isomer, unassigned) [Example 238, 1-(3,4-difluorophenyl)-3-[(1S or R)-1-{3-[5-(1-methyl-1H-pyrazol-4-yl)pyrimidin-2-yl]phenyl}ethyl]pyridazin-4(1H)-one] | 100 to 1000 nM
2 | CC(c1cccc(-c2ncc(-n3cnnc3)cn2)c1)c1nn(-c2cnn(C)c2)ccc1=O (single isomer, unassigned) [Example 240, 1-(1-methyl-1H-pyrazol-4-yl)-3-[(1R or S)-1-{3-[5-(4H-1,2,4-triazol-4-yl)pyrimidin-2-yl]phenyl}ethyl]pyridazin-4(1H)-one] | 100 to 1000 nM
3 | CC(c1cccc(-c2ncc(Br)cn2)c1)c1nn(-c2cnn(C)c2)ccc1=O (single isomer, unassigned) [Example 241, 3-{(1S or R)-1-[3-(5-bromopyrimidin-2-yl)pheny]ethyl)}-1-(1-methyl-1H-pyrazol-4-yl)pyridazin-4(1H)-one] | 100 to 1000 nM
4 | CC(c1cccc(-c2ncc(N3CCOCC3)cn2)c1)c1nn(-c2cnn(C)c2)ccc1=O (single isomer, unassigned) [Example 244, 1-(1-methyl-1H-pyrazol-4-yl)-3-{(1R or S)-1-[3-(5-morpholin-4-ylpyrimidin-2-yl)phenyl]ethyl}pyridazin-4(1H)-one] | 100 to 1000 nM
5 | CCOc1cnc(-c2cccc(C(C)c3nn(-c4cnn(CC)c4)ccc3=O)c2)nc1 (single isomer, unassigned) [Example 245, 3-{(1S or R)-1-[3-(5-ethoxypyrimidin-2-yl)phenyl]ethyl}-1-(1-ethyl-1H-pyrazol-4-yl)pyridazin-4(1H)-one] | 100 to 1000 nM
6 | CCn1cc(-n2ccc(=O)c(C(C)c3cccc(-c4ncc(OCCOC)cn4)c3)n2)cn1 (single isomer, unassigned) [Example 247, 1-(1-ethyl-1H-pyrazol-4-yl)-3-((1S or R)-1-{3-[5-(2-methoxyethoxy)primidin-2-yl]phenyl}ethyl)pyridazin-4(1H)-one] | 100 to 1000 nM
7 | CC(c1cccc(-c2ncc(OCC(C)(C)O)cn2)c1)c1nn(-c2ccc(F)c(F)c2)ccc1=O (single isomer, unassigned) [Example 249, 1-(3,4-difluorophenyl)-3-[(1S or R)-1-{3-[5-(2-hydroxy-2-methylpropoxy)pyrimidin-2-yl]phenyl}ethyl]pyridazin-4(1H)-one] | 100 to 1000 nM
8 | CCOc1cnc(-c2cccc(C(C)c3nn(-c4cnn(CCO)c4)ccc3=O)c2)nc1 (single isomer, unassigned) [Example 255, 3-{(1S or R)-1-[3-(5-Ethoxypyrimidin-2-yl)phenyl]ethyl}-1-[1-(2-hydroxyethyl)-1H-pyrazol-4-yl]pyridazin-4(1H)-one] | 100 to 1000 nM
9 | CCn1cc(-n2ccc(=O)c(C(C)c3cccc(-c4ncc(O)cn4)c3)n2)cn1 (single isomer, unassigned) [Example 257, 1-(1-ethyl-1H-pyrazol-4-yl)-3-{(1S or R)-1-[3-(5-hydroxypyrimidin-2-yl)phenyl]ethyl}pyridazin-4(1H)-one] | 1000 to 3000 nM
10 | CCn1cc(-n2ccc(=O)c(C(C)c3cccc(-c4ncc(OCC5(F)CCN(C(=O)OC(C)(C)C)CC5)cn4)c3)n2)cn1 (single isomer, unassigned) [Example 290, tert-butyl 4-({[2-(3-{(1R or S)-1-[1-(1-ethyl-1H pyrazol-4-yl)-4-oxo-1,4-dihydropyridazin-3-yl]ethyl}phenyl)pyrimidin-5-yl]oxy}methyl)-4-fluoropiperidine-1-carboxylate] | < 100 nM
11 | CCn1cc(-n2ccc(=O)c(C(C)c3cccc(-c4ncc(OCC5CCN(C(=O)OC(C)(C)C)CC5)cn4)c3)n2)cn1 (single isomer, unassigned) [Example 291, tert-butyl 4-({[2-(3-{(1R or S)-1-[1-(1-ethyl-1H-pyrazol-4-yl)-4-oxo-1,4-dihydropyridazin-3-yl]ethyl}phenyl)pyrimidin-5-yl]oxy}methyl)piperidine-1-carboxylate] | < 100 nM
12 | CCn1cc(-n2ccc(=O)c(C(C)c3cccc(-c4ncc(OC5CN(C(=O)OC(C)(C)C)C5)cn4)c3)n2)cn1 (single isomer, unassigned) [Example 292, tert-butyl 3-{[2-(3-{(1R or S)-1-[1-(1-ethyl-1H-pyrazol-4-yl)-4-oxo-1,4-dihydropyridazin-3-yl]ethyl}phenyl)pyrimidin-5-yl]oxy}azetidine-1-carboxylate] | < 100 nM
13 | CCn1cc(-n2ccc(=O)c(C(C)c3cccc(-c4ncc(OC(C)C)cn4)c3)n2)cn1 (single isomer, unassigned) [Example 293, 1-(1-ethyl-1H-pyrazol-4-yl)-3-[(1R or S)-1-{3-[5-(1-methylethoxy)pyrimidin-2-yl]phenyl}ethyl]pyridazin-4(1H)-one] | < 100 nM
14 | CCn1cc(-n2ccc(=O)c(C(C)c3cccc(-c4ncc(OCC(F)F)cn4)c3)n2)cn1 (single isomer, unassigned) [Example 294, 3-[(1R or S)-1-{3-[5-(2,2-difluoroethoxy)pyrimidin-2-yl]phenyl}ethyl]-1-(1-ethyl-1H-pyrazol-4-yl)pyridazin-4(1H)-one] | < 100 nM

Continued, values first:

Row | IC50 | Structure (SMILES)
15 | < 100 nM | CCn1cc(-n2ccc(=O)c(C(C)c3cccc(-c4ncc(-c5cnn(C)c5)cn4)c3)n2)cn1 (single isomer, unassigned) [Example 234, 1-(1-ethyl-1H-pyrazol-4-yl)-3-[(1S or R)-1-{3-[5-(1-methyl-1H-pyrazol-4-yl)pyrimidin-2-yl]phenyl}ethyl]pyridazin-4(1H)-one]
16 | < 100 nM | CCn1cc(-n2ccc(=O)c(C(C)c3cccc(-c4ncc(-c5cnn(C)c5)cn4)c3)n2)cn1 (single isomer, unassigned) [Example 235, 1-(1-ethyl-1H-pyrazol-4-yl)-3-[(1R or S)-1-{3-[5-(1-methyl-1H-pyrazol-4-yl)pyrimidin-2-yl]phenyl}ethyl]pyridazin-4(1H)-one]
17 | < 100 nM | CCc1cnc(-c2cccc(C(C)c3nn(-c4cnn(C)c4)ccc3=O)c2)nc1 (single isomer, unassigned) [Example 236, 3-{(1S or R)-1-[3-(5-ethylpyrimidin-2-yl)phenyl]ethyl}-1-(1-methyl-1H-pyrazol-4-yl)pyridazin-4(1H)-one]
18 | < 100 nM | CCc1cnc(-c2cccc(C(C)c3nn(-c4cnn(C)c4)ccc3=O)c2)nc1 (single isomer, unassigned) [Example 237, 3-{(1R or S)-1-[3-(5-ethylpyrimidin-2-yl)phenyl]ethyl}-1-(1-methyl-1H-pyrazol-4-yl)pyridazin-4(1H)-one]
19 | < 100 nM | CC(c1cccc(-c2ncc(-c3cnn(C)c3)cn2)c1)c1nn(-c2ccc(F)c(F)c2)ccc1=O (single isomer, unassigned) [Example 239, 1-(3,4-difluorophenyl)-3-[(1R or S)-1-{3-[5-(1-methyl-1H-pyrazol-4-yl)pyrimidin-2-yl]phenyl}ethyl]pyridazin-4(1H)-one]
20 | < 100 nM | CC(c1cccc(-c2ncc(Br)cn2)c1)c1nn(-c2cnn(C)c2)ccc1=O (single isomer, unassigned) [Example 242, 3-{(1R or S)-1-[3-(5-bromopyrimidin-2-yl)phenyl]ethyl}-1-(1-methyl-1H-pyrazol-4-yl)pyridazin-4(1H)-one]
21 | < 100 nM | CC(c1cccc(-c2ncc(N3CCOCC3)cn2)c1)c1nn(-c2cnn(C)c2)ccc1=O (single isomer, unassigned) [Example 243, 1,1-methyl-1H-pyrazol-4-yl)-3-{(1S or R)-1-[3-(5-morpholin-4-ylpyrimidin-2-yl)phenyl]ethyl}pyridazin-4(1H) one]
22 | < 100 nM | CCOc1cnc(-c2cccc(C(C)c3nn(-c4cnn(CC)c4)ccc3=O)c2)nc1 (single isomer, unassigned) [Example 246, 3-{(1R or S)-1-[3-(5-ethoxypyrimidin-2-yl)phenyl]ethyl}-1-(1-ethyl-1H-pyrazol-4-yl)pyridazin-4(1H)-one]
23 | < 100 nM | CCn1cc(-n2ccc(=O)c(C(C)c3cccc(-c4ncc(OCCOC)cn4)c3)n2)cn1 (single isomer, unassigned) [Example 248, 1-(1-ethyl-1H-pyrazol-4-yl)-3-((1R or S)-1-{3-[5-(2-methoxyethoxy)pyrimidin-2-yl]phenyl}ethyl)pyridazin-4(1H)-one]
24 | < 100 nM | CC(c1cccc(-c2ncc(OCC(C)(C)O)cn2)c1)c1nn(-c2ccc(F)c(F)c2)ccc1=O (single isomer, unassigned) [Example 250, 1-(3,4-difluorophenyl)-3-[(1R or S)-1-{3-[5-(2-hydroxy-2-methylpropoxy)pyrimidin-2-yl]phenyl}ethyl]pyridazin-4(1H)-one]
25 | < 100 nM | COC(C)(C)COc1cnc(-c2cccc(C(C)c3nn(-c4ccc(F)c(F)c4)ccc3=O)c2)nc1 (single isomer, unassigned) [Example 251, 1-(3,4-difluorophenyl)-3-[(1S or R)-1-{3-[5-(2-methoxy-2-methylpropoxy)pyrimidin-2-yl]phenyl}ethyl]pyridazin-4(1H)-one]
26 | < 100 nM | COC(C)(C)COc1cnc(-c2cccc(C(C)c3nn(-c4ccc(F)c(F)c4)ccc3=O)c2)nc1 (single isomer, unassigned) [Example 252, 1-(3,4-difluorophenyl)-3-[(1R or S)-1-{3-[5-(2-methoxy-2-methylpropoxy)pyrimidin-2-yl]phenyl}ethyl]pyridazin-4(1H)-one]
27 | < 100 nM | CCOc1cnc(-c2cccc(C(C)c3nn(-c4cnn(CCO)c4)ccc3=O)c2)nc1 (single isomer, unassigned) [Example 256, 3-{(1R or S)-1-[3-(5-ethoxypyrimidin-2-yl)phenyl]ethyl}-1-[1-(2-hydroxyethyl)-1H-pyrazol-4-yl]pyridazin-4(1H)-one]
28 | < 100 nM | CCn1cc(-n2ccc(=O)c(C(C)c3cccc(-c4ncc(O)cn4)c3)n2)cn1 (single isomer, unassigned) [Example 258, 1-(1-ethyl-1H-pyrazol-4-yl)-3-{(1R or S)-1-[3-(5-hydroxypyrimidin-2-yl)phenyl]ethyl}pyridazin-4(1H)-one]

Source: patent publication US20120264735A1 (priority 2009, published 2012)
